Measurements from patent US10639345B2, “Compositions for preserving photoreceptor cells, retinal pigment epithelial cells, or visual function” (Massachusetts Eye and Ear Infirmary, priority 2010, dated 2020).
Where a SMILES comes first, the peptide text is derived from it. The star is where a group is joined. Cbz = O=C(OCc1ccccc1)*; CH2F = FC*

Experiments:
photoreceptors [1] = assay: Normalized ONL thickness ratio after retinal detachment in RIP-3−/− mice
Protocol: TUNEL assays were used to measure the amount of apoptotic and necrotic cell death (Grasl-Kraupp et al., HEPTALOGY (1995) 21(5):1465-8). TUNEL and quantification of TUNEL positive cells in ONL were performed as described above by using the ApopTag Fluorescein In Situ Apoptosis Detection Kit (Millipore, Billerica, Mass.). The ratio of the ONL thickness to the thickness of neuroretina in the central area of the detached retina was determined by National Institutes of Health ImageJ software and standardized by that in the attached retina. The data are expressed as normalized ONL thickness ratio [(ONL/neuroretina thickness in detached retina)/(ONL/neuroretina thickness in attached retina)].

photoreceptors [2] = assay: In vivo propidium iodide staining of photoreceptors after retinal detachment, wild-type retina; set-up: species or system mouse; details: three days after retinal detachment
Protocol: In vivo propidium iodide (PI) staining was performed by injecting 5 μl of PI (50 μg/ml) into the subretinal space three days after retinal detachment. After two hours, the eyes were enucleated and 10 μm thick cryosections were cut, air-dried, and fixed in 100% ethanol. DAPI was used to counterstain the nuclei. The center of the detached retina was photographed by fluorescence microscope, and the number of PI-positive cells in ONL was analyzed by ImageJ software.
(*, P<0.05; **, P<0.01; scale bar, 100 μm.)

photoreceptors [3] = assay: TEM quantification of photoreceptor death after retinal detachment in RIP-3−/− mice; format: in vivo; details: day three after retinal detachment
Protocol: TEM was performed as previously described (Hisatomi T et al. (2008). J. CLIN. INVEST. 118:2025-2038). […] Over 200 photoreceptors each eye were photographed and subjected to quantification of cell death modes in a masked fashion. Photoreceptors showing cellular shrinkage and nuclear condensation were defined as apoptotic cells, while photoreceptors associated with cellular and organelle swelling and discontinuities in nuclear and plasma membrane were defined as necrotic cells. The presence of electron-dense granular materials were reported to occur subsequent to both apoptotic and necrotic cell death and cells with these findings were labeled simply as end-stage cell death/unclassified (Hisatomi T et al. (2003) AM. J. PATHOL. 162:1869-1879; Erickson P A et al. (1983) INVEST. OPHTHALMOL. VIS. SCI. 24:927-942).
The morphology of the RIP-3−/− retina after retinal detachment was also assessed by TEM. […] RIP-3 deficiency inhibits the switch to necrotic cell death by Z-VAD treatment and prevents photoreceptor death after retinal detachment. Scale bar, 5 μm.

[4] = system: CD11b-positive macrophage/microglia; assay: CD11b-positive cell infiltration after retinal detachment in RIP-3−/− eyes; format: in vivo, RIP-3−/− mice
Protocol: Immunofluorescence was performed as previously reported (Hisatomi et al. (2008) J CLIN INVEST 118:2025-2038. The enucleated eyes were frozen in OCT compound (Sakura Finetechnical Co., Tokyo, Japan). Five μm-thick sections were cut, air dried and fixed in cold acetone for 10 minutes. Rat anti-CD11b (1:50; BD Biosciences, San Diego, Calif.) was used as the primary antibody and incubated at 4° C. overnight. A nonimmune serum was used as a negative control. Alexa Fluor 594-conjugated goat anti-rat IgG (Invitrogen, Carlsbad, Calif.) was used as the secondary antibody and incubated at room temperature for one hour. The specimens were imaged by confocal microscopy using the Leica HCX APOL40× lens.
Since the release of intracellular content in necrosis results in secondary inflammation, changes in the inflammatory response after retinal detachment were investigated by immunohistochemistry and immunofluorescence with an antibody against CD11b. FIG. 11A-B show IHC for CD11b (FIG. 11A) and quantification of CD11b-positive cells in control retina without retinal detachment and in retina treated with vehicle, Z-VAD or Z-VAD+Nec-1 (n=6 each) (FIG. 11B) at three days after retinal detachment. […]
FIG. 11C-D show immunofluorescence for CD11b (FIG. 11C) and quantification of CD11b-positive macrophage/microglia (FIG. 11D) in WT and RIP-3−/− retina after retinal detachment.

primary RPE cells = assay: Viability of primary RPE cells treated with poly I:C (Cell Counting Kit-8); format: cell-based, mice; details: WT primary RPE cells, 5 μg/ml poly I:C for 48 hours
Protocol: As described in Example 11, primary RPE cells were extracted from the retina of mice and cultured in the presence of 5 μg/ml of poly I:C for 48 hours or with PBS. Cell viability was measured using Cell Counting Kit-8 (Dojindo Laboratories, Kumamoto, Japan). This assay is based on the cleavage of 2-(2-methoxy-4-nitrophenyl)-3-(4-nitrophenyl)-5-(2,4-disulfophenyl)-2H-tetrazolium, monosodium salt (WST-8) by the mitochondrial dehydrogenase enzyme to produce a formazan dye. After incubation with WST-8 for two hours at 37° C., absorbance was measured at 450 nm to determine cell viability.

photoreceptors [5] = assay: Poly I:C-induced dry AMD model, ONL thickness; format: in vivo, mice
Text: In this example, the mechanism of photoreceptor cell death in dry AMD was investigated using a polyinosinic:polycytidylic acid (Poly I:C)-induced dry AMD model (Yang et al. (2009) NEJM 359(14):1456-63). Poly I:C is a synthetic double-stranded RNA (dsRNA) analog that activates toll-like receptor 3 (TLR3) signaling (FIG. 20A). Furthermore, dsRNA are known to exist in the drusen of human AMD patients. As depicted in FIG. 20A, activation of the TLR3 signaling results in activation of RIP-1 kinase pathway. […] In the experiments described herein, 2-3 μl of Poly I:C (1 mg/ml) was injected into the subretinal space of the eye (e.g., approximately 2-3 μg of Poly I:C was administered to the eye) to induce AMD.
The thickness of the outer nuclear layer (ONL) was also determined in WT or RIP-3−/− mice at 14 days following treatment with poly I:C. Sections were randomly selected from either WT or RIP-3−/− mice following poly I:C treatment and the retina was photographed. The ONL thickness was measured in each section by masked observers.
To determine the effect of Nec-1 and a pan-caspase inhibitor in the treatment of AMD, TUNEL assay was performed to assess photoreceptor cell death in the poly I:C induced AMD model. […] The thickness of ONL was also measured.

In the case of `COC(=O)CC(NC(=O)C(C)NC(=O)C(NC(=O)OCc1ccccc1)C(C)C)C(=O)CF` (stereo not drawn) [Z-VAD, Benzyloxycarbonyl-Val-Ala-Asp(OMe)-fluoromethylketone] (Cbz-Val-Ala-Asp(OMe)-CH2F; configuration not given here), the ONL thickness ratio (photoreceptors [1]; day 3 and 5 after retinal detachment, RIP-3−/− retinas) is reported as “augmented”, the “normalized ONL thickness ratio” value (photoreceptors [1]; five days after retinal detachment, RIP-3−/− mice) is reported as 0.841±0.042 and the “number of PI-positive photoreceptors in the ONL” value (photoreceptors [2]) is reported as 817.4±104.2 cells/mm^2. The “% apoptotic cells (TEM)” value (photoreceptors [3]) was 4.8±1.3%, the “% necrotic cells (TEM)” value (photoreceptors [3]) was 6.4±1.3% and the “% unclassified (TEM)” value (photoreceptors [3]) was 0.9±0.4%. For the same compound, the “infiltration of CD11-b positive cells in the retina and subretinal space” value [4] was “even less infiltration”, the “viability of RPE cells” value (primary RPE cells) was “did not protect WT RPE cells” and the ONL thickness (photoreceptors [5]) was “minimal effect”.
